Assay: CHI Log D procedure
Assay type: physicochemical
Conditions: for chromatographic logD: pH 7.4, CHI Log D; for CHI Log D: pH 7.4

Structure (SMILES) | chromatographic logD | CHI Log D
CC(=O)N1CCC[C@]12CC=CCCCC1(CCCC=CCCCCCC[C@@](C)(C(=O)N[C@@H](Cc3ccccc3)C(=O)N[C@@H](Cc3c[nH]c4ccccc34)C(=O)N[C@@H](CCC(N)=O)C(N)=O)NC(=O)[C@H](C(C)C)NC(=O)[C@H](Cc3ccccc3)NC(=O)[C@H](C)NC(=O)[C@H](C)NC(=O)[C@H](CCc3ccccc3)NC(=O)[C@H](CC(=O)O)NC1=O)NC(=O)[C@H](C)NC(=O)[C@H](CC(=O)O)NC2=O (stereo partly drawn) [I-195, Ac-PL3-Asp-Ala-B5-Asp-hPhe-Ala-Ala-Phe-Val-S8-Phe-Trp-Gln-NH2] | 2.98 | 
CC(=O)N1CCC[C@]12CC=CCCCC1(CCCC=CCCCCCC[C@@](C)(C(=O)N[C@@H](Cc3ccccc3)C(=O)N[C@@H](Cc3c[nH]c4ccccc34)C(=O)N[C@@H](CCC(N)=O)C(N)=O)NC(=O)[C@H](C(C)C)NC(=O)[C@H](Cc3ccccc3)NC(=O)[C@H](C)NC(=O)[C@H](C)NC(=O)[C@H](CCC(=O)O)NC(=O)[C@H](CCc3ccccc3)NC1=O)NC(=O)[C@H](C)NC(=O)[C@H](CC(=O)O)NC2=O (stereo partly drawn) [I-196, Ac-PL3-Asp-Ala-B5-hPhe-Glu-Ala-Ala-Phe-Val-S8-Phe-Trp-Gln-NH2] |  | 3.711
CC(=O)N1CCC[C@]12CC=CCCCC1(CCCC=CCCCCCC[C@@](C)(C(=O)N[C@@H](Cc3ccccc3)C(=O)N[C@@H](Cc3c[nH]c4ccccc34)C(=O)N[C@@H](CCC(N)=O)C(N)=O)NC(=O)[C@H](C(C)C)NC(=O)[C@H](Cc3ccccc3)NC(=O)[C@H](C)NC(=O)[C@H](C)NC(=O)[C@H](CCC(=O)O)NC(=O)[C@H](CC(=O)O)NC1=O)NC(=O)[C@H](C)NC(=O)[C@H](Cc1ccc(O)cc1)NC2=O (stereo partly drawn) [I-202, Ac-PL3-Tyr-Ala-B5-Asp-Glu-Ala-Ala-Phe-Val-S8-Phe-Trp-Gln-NH2] | 2.62 | 
CC(=O)N1CCC[C@]12CC=CCCCC1(CCCC=CCCCCCC[C@@](C)(C(=O)N[C@@H](Cc3ccccc3)C(=O)N[C@@H](Cc3c[nH]c4ccccc34)C(=O)N[C@@H](CCC(N)=O)C(N)=O)NC(=O)[C@H](C(C)C)NC(=O)[C@H](Cc3ccccc3)NC(=O)[C@H](C)NC(=O)[C@H](C)NC(=O)[C@H](CCC(=O)O)NC(=O)[C@H](CC(=O)O)NC1=O)NC(=O)[C@H](C)NC(=O)[C@H](Cc1cccc(C)c1)NC2=O (stereo partly drawn) [I-203, Ac-PL3-3MeF-Ala-B5-Asp-Glu-Ala-Ala-Phe-Val-S8-Phe-Trp-Gln-NH2] | 3.09 | 
CCCC[C@@H]1NC(=O)C2(CCCC=CCCCCCC[C@@](C)(C(=O)N[C@@H](Cc3ccccc3)C(=O)N[C@@H](Cc3c[nH]c4ccccc34)C(=O)N[C@@H](CCC(N)=O)C(N)=O)NC(=O)[C@H](C(C)C)NC(=O)[C@H](Cc3ccccc3)NC(=O)[C@H](C)NC(=O)[C@H](C)NC(=O)[C@H](CCC(=O)O)NC1=O)CCCC=CC[C@]1(CCCN1C(C)=O)C(=O)N[C@@H](CC(=O)O)C(=O)N[C@@H](C)C(=O)N2 (stereo partly drawn) [I-205, Ac-PL3-Asp-Ala-B5-nLeu-Glu-Ala-Ala-Phe-Val-S8-Phe-Trp-Gln-NH2] | 3.84 | 
CC(=O)N1CCC[C@]12CC=CCCCC1(CCCC=CCCCCCC[C@@](C)(C(=O)N[C@@H](Cc3ccccc3)C(=O)N[C@@H](Cc3c[nH]c4ccccc34)C(=O)N[C@@H](CCC(N)=O)C(N)=O)NC(=O)[C@H](C(C)C)NC(=O)[C@H](Cc3ccccc3)NC(=O)[C@H](C)NC(=O)[C@H](C)NC(=O)[C@H](CCC(=O)O)NC(=O)[C@H](Cc3ccncc3)NC1=O)NC(=O)[C@H](C)NC(=O)[C@H](CC(=O)O)NC2=O (stereo partly drawn) [I-214, Ac-PL3-Asp-Ala-B5-4pyrA-Glu-Ala-Ala-Phe-Val-S8-Phe-Trp-Gln-NH2] | 2.7 | 
CC(=O)N1CCC[C@]12CC=CCCCC1(CCCC=CCCCCCC[C@@](C)(C(=O)N[C@@H](Cc3ccccc3)C(=O)N[C@@H](Cc3c[nH]c4ccccc34)C(=O)N[C@@H](CCC(N)=O)C(N)=O)NC(=O)[C@H](C(C)C)NC(=O)[C@H](Cc3ccccc3)NC(=O)[C@H](C)NC(=O)[C@H](C)NC(=O)[C@H](CCC(=O)O)NC(=O)[C@H](Cc3ccccn3)NC1=O)NC(=O)[C@H](C)NC(=O)[C@H](CC(=O)O)NC2=O (stereo partly drawn) [I-230, Ac-PL3-Asp-Ala-B5-2pyrA-Glu-Ala-Ala-Phe-Val-S8-Phe-Trp-Gln-NH2] | 2.98 | 
CC(=O)N1CCC[C@]12CC=CCCCC1(CCCC=CCCCCCC[C@@](C)(C(=O)N[C@@H](Cc3ccccc3)C(=O)N[C@@H](Cc3c[nH]c4ccccc34)C(=O)N[C@@H](CCC(N)=O)C(N)=O)NC(=O)[C@H](C(C)C)NC(=O)[C@H](Cc3ccccc3)NC(=O)[C@H](C)NC(=O)[C@H](C)NC(=O)[C@H](Cc3ccc(-c4ccccc4)cc3)NC(=O)[C@H](CC(=O)O)NC1=O)NC(=O)[C@H](C)NC(=O)[C@H](CC(=O)O)NC2=O (stereo partly drawn) [I-235, Ac-PL3-Asp-Ala-B5-Asp-Bip-Ala-Ala-Phe-Val-S8-Phe-Trp-Gln-NH2] | 3.2 | 
CC(=O)N1CCC[C@]12CC=CCCCC1(CCCC=CCCCCCC[C@@](C)(C(=O)N[C@@H](Cc3ccc(F)c(F)c3)C(=O)N[C@@H](Cc3c[nH]c4ccccc34)C(=O)N[C@@H](CCC(N)=O)C(N)=O)NC(=O)[C@H](C(C)C)NC(=O)[C@H](Cc3ccccc3)NC(=O)[C@H](C)NC(=O)[C@H](C)NC(=O)[C@H](CC(=O)O)NC(=O)[C@H](CC(=O)O)NC1=O)NC(=O)[C@H](C)NC(=O)[C@H](CC(=O)O)NC2=O (stereo partly drawn) [I-262, Ac-PL3-Asp-Ala-B5-Asp-Asp-Ala-Ala-Phe-Val-S8-34FF-Trp-Gln-NH2] |  | 2.106
CC(=O)N1CCC[C@]12CC=CCCCC1(CCCC=CCCCCCC[C@@](C)(C(=O)N[C@@H](Cc3ccc(F)c(F)c3)C(=O)N[C@@H](Cc3c[nH]c4ccccc34)C(=O)N[C@@H](CCC(N)=O)C(N)=O)NC(=O)[C@H](C(C)C)NC(=O)[C@H](Cc3ccccc3)NC(=O)[C@H](C)NC(=O)[C@H](C)NC(=O)[C@H](CC(=O)O)NC(=O)[C@H](CC(=O)O)NC1=O)NC(=O)[C@H](C)NC(=O)[C@H](CC(=O)O)NC2=O (stereo partly drawn) [I-263, Ac-PL3-Asp-Ala-B5-Asp-Asp-Ala-Ala-Phe-Val-S8-34FF-Trp-Gln-NH2] |  | 2.128
CC(=O)N1CCC[C@]12CC=CCCCC1(CCCC=CCCCCCC[C@@](C)(C(=O)N[C@@H](Cc3ccccc3)C(=O)N[C@@H](Cc3c[nH]c4ccccc34)C(=O)N[C@@H](CCC(N)=O)C(N)=O)NC(=O)[C@H](C(C)C)NC(=O)[C@H](Cc3cccc(F)c3)NC(=O)[C@H](C)NC(=O)[C@H](C)NC(=O)[C@H](CC(=O)O)NC(=O)[C@H](CC(=O)O)NC1=O)NC(=O)[C@H](C)NC(=O)[C@H](CC(=O)O)NC2=O (stereo partly drawn) [I-264, Ac-PL3-Asp-Ala-B5-Asp-Asp-Ala-Ala-3FF-Val-S8-Phe-Trp-Gln-NH2] |  | 2.011
CC(=O)N1CCC[C@]12CC=CCCCC1(CCCC=CCCCCCC[C@@](C)(C(=O)N[C@@H](CCc3ccc(O)cc3)C(=O)N[C@@H](Cc3c[nH]c4ccccc34)C(=O)N[C@@H](CCC(N)=O)C(N)=O)NC(=O)[C@H](C(C)C)NC(=O)[C@H](Cc3ccccc3)NC(=O)[C@H](C)NC(=O)[C@H](C)NC(=O)[C@H](CC(=O)O)NC(=O)[C@H](CC(=O)O)NC1=O)NC(=O)[C@H](C)NC(=O)[C@H](CC(=O)O)NC2=O (stereo partly drawn) [I-269, Ac-PL3-Asp-Ala-B5-Asp-Asp-Ala-Ala-Phe-Val-S8-hTyr-Trp-Gln-NH2] | 1.81 | 

The remaining lines, values ahead:

chromatographic logD | CHI Log D | Structure (SMILES)
2.21 |  | CC(=O)N1CCC[C@]12CC=CCCCC1(CCCC=CCCCCCC[C@@](C)(C(=O)N[C@@H](Cc3c(F)c(F)c(F)c(F)c3F)C(=O)N[C@@H](Cc3c[nH]c4ccccc34)C(=O)N[C@@H](CCC(N)=O)C(N)=O)NC(=O)[C@H](C(C)C)NC(=O)[C@H](Cc3ccccc3)NC(=O)[C@H](C)NC(=O)[C@H](C)NC(=O)[C@H](CCC(=O)O)NC(=O)[C@H](CC(=O)O)NC1=O)NC(=O)[C@H](C)NC(=O)[C@H](CC(=O)O)NC2=O (stereo partly drawn) [I-183, Ac-PL3-Asp-Ala-B5-Asp-Glu-Ala-Ala-Phe-Val-S8-Pff-Trp-Gln-NH2]
2.98 |  | CC(=O)N1CCC[C@]12CC=CCCCC1(CCCC=CCCCCCC[C@@](C)(C(=O)N[C@@H](Cc3ccccc3)C(=O)N[C@@H](Cc3c[nH]c4ccccc34)C(=O)N[C@@H](CCC(N)=O)C(N)=O)NC(=O)[C@H](C(C)C)NC(=O)[C@H](Cc3ccccc3)NC(=O)[C@H](C)NC(=O)[C@H](C)NC(=O)[C@H](CCC(=O)O)NC(=O)[C@H](CC(=O)O)NC1=O)NC(=O)[C@H](C)NC(=O)[C@H](Cc1cccc(F)c1)NC2=O (stereo partly drawn) [I-204, Ac-PL3-3FF-Ala-B5-Asp-Glu-Ala-Ala-Phe-Val-S8-Phe-Trp-Gln-NH2]
2.82 |  | CC(=O)N1CCC[C@]12CC=CCCCC1(CCCC=CCCCCCC[C@@](C)(C(=O)N[C@@H](Cc3ccccc3)C(=O)N[C@@H](Cc3c[nH]c4ccccc34)C(=O)N[C@@H](CCC(N)=O)C(N)=O)NC(=O)[C@H](C(C)C)NC(=O)[C@H](Cc3ccccc3)NC(=O)[C@H](C)NC(=O)[C@H](C)NC(=O)[C@H](CCC(=O)O)NC(=O)[C@H](Cc3cccnc3)NC1=O)NC(=O)[C@H](C)NC(=O)[C@H](CC(=O)O)NC2=O (stereo partly drawn) [I-213, Ac-PL3-Asp-Ala-B5-3pyrA-Glu-Ala-Ala-Phe-Val-S8-Phe-Trp-Gln-NH2]
3.03 |  | CC(=O)N1CCC[C@]12CC=CCCCC1(CCCC=CCCCCCC[C@@](C)(C(=O)N[C@@H](Cc3ccccc3)C(=O)N[C@@H](Cc3c[nH]c4ccccc34)C(=O)N[C@@H](CCC(N)=O)C(N)=O)NC(=O)[C@H](C(C)C)NC(=O)[C@H](Cc3ccccc3)NC(=O)[C@H](C)NC(=O)[C@H](C)NC(=O)[C@H](Cc3cccc4ccccc34)NC(=O)[C@H](CC(=O)O)NC1=O)NC(=O)[C@H](C)NC(=O)[C@H](CC(=O)O)NC2=O (stereo partly drawn) [I-234, Ac-PL3-Asp-Ala-B5-Asp-1NapA-Ala-Ala-Phe-Val-S8-Phe-Trp-Gln-NH2]
2.89 |  | CC(=O)N1CCC[C@]12CC=CCCCC1(CCCC=CCCCCCC[C@@](C)(C(=O)N[C@@H](Cc3ccccc3)C(=O)N[C@@H](Cc3c[nH]c4ccccc34)C(=O)N[C@@H](CCC(N)=O)C(N)=O)NC(=O)[C@H](C(C)C)NC(=O)[C@H](Cc3ccccc3)NC(=O)[C@H](C)NC(=O)[C@H](C)NC(=O)[C@H](Cc3ccc(F)cc3)NC(=O)[C@H](CC(=O)O)NC1=O)NC(=O)[C@H](C)NC(=O)[C@H](CC(=O)O)NC2=O (stereo partly drawn) [I-258, Ac-PL3-Asp-Ala-B5-Asp-4FF-Ala-Ala-Phe-Val-S8-Phe-Trp-Gln-NH2]
 | 1.991 | CC(=O)N1CCC[C@]12CC=CCCCC1(CCCC=CCCCCCC[C@@](C)(C(=O)N[C@@H](Cc3ccccc3)C(=O)N[C@@H](Cc3c[nH]c4ccccc34)C(=O)N[C@@H](CCC(N)=O)C(N)=O)NC(=O)[C@H](C(C)C)NC(=O)[C@H](Cc3ccccc3)NC(=O)[C@H](C)NC(=O)[C@H](C)NC(=O)[C@H](CC(=O)O)NC(=O)[C@H](CC(=O)O)NC1=O)NC(=O)[C@H](C)NC(=O)[C@H](CCC(=O)O)NC2=O (stereo partly drawn) [I-280, Ac-PL3-Glu-Ala-B5-Asp-Asp-Ala-Ala-Phe-Val-S8-Phe-Trp-Gln-NH2]
